Results as given in ChEMBL document CHEMBL4130368, “Thienopyrimidine derivatives exert their anticancer efficacy via apoptosis induction, oxidative stress and mitotic catastrophe” (Eur J Med Chem, 2017).

Experiments:
HepG2 = assay: Antiproliferative activity against human HepG2 cells after 72 hrs by MTT assay; type: functional, cell-based; details: HepG2, 72 h
HCT-116 = assay: Antiproliferative activity against human HCT116 cells after 72 hrs by MTT assay; type: functional, cell-based; details: HCT-116, 72 h
HCT-15 = assay: Antiproliferative activity against human HCT15 cells after 72 hrs by MTT assay; type: functional, cell-based; details: HCT-15, 72 h
LN-229 = assay: Antiproliferative activity against human LN229 cells after 72 hrs by MTT assay; type: functional, cell-based; details: LN-229, 72 h
[1] = Antiproliferative activity against human GBM10 cells after 72 hrs by MTT assay; type: functional, cell-based; details: GBM10, 72 h
A2780 = assay: Antiproliferative activity against human A2780 cells after 72 hrs by MTT assay; type: functional, cell-based; details: A2780, 72 h
CHO = assay: Cytotoxicity against CHO cells assessed as reduction in cell survival after 72 hrs by MTT assay; type: ADME, cell-based; details: Cricetulus griseus
PC-3 = assay: Antiproliferative activity against human PC3 cells after 72 hrs by MTT assay; type: functional, cell-based; details: PC-3, 72 h
KB = assay: Antiproliferative activity against human KB cells by MTT assay; type: functional, cell-based
NCI-H460 = assay: Antiproliferative activity against human NCI-H460 cells after 24 hrs by MTT assay; type: functional, cell-based; details: NCI-H460, 24 h
A549 = assay: Antiproliferative activity against human A549 cells after 24 hrs by MTT assay; type: functional, cell-based; details: A549, 24 h
U-251 = assay: Antiproliferative activity against human U251 cells after 24 hrs by MTT assay; type: functional, cell-based; details: U-251, 24 h

Structure (SMILES) | IC50 (HepG2) [µM] | IC50 (HCT-116) [µM] | IC50 (HCT-15) [µM] | IC50 (LN-229) [µM] | IC50 [1] [µM] | IC50 (A2780) [µM] | IC50 (CHO) [µM] | IC50 (PC-3) [µM] | IC50 (KB) [µM] | IC50 (NCI-H460) [µM] | IC50 (A549) [µM] | IC50 (U-251) [µM]
O=c1c2c3c(sc2ncn1Cc1ccc(Br)cc1)CCCC3 | 14.9 | – | – | – | – | – | – | – | – | – | – | –
COc1cc(OC)cc(-c2nc(O)c3c4c(sc3n2)CCCC4)c1 | – | 22.3 | 26.3 | 48.1 | 41.9 | 7.3 | > 100 | – | – | – | – | –
O=C(CSc1nc2sc3c(c2c(=O)n1Cc1ccccc1)CCCC3)NNC(=S)Nc1ccccc1 | – | – | 5.33 | – | – | – | – | 5.33 | – | – | – | –
CCCCOc1nc2sc3c(c2c(=O)n1Cc1ccccc1)CCCC3 | – | – | – | – | – | – | – | – | 19 | – | – | –
COc1ccc(-c2nc(O)c3c4c(sc3n2)CCCC4)cc1OC | – | 19.6 | 11 | 14.5 | 12.5 | 1.9 | > 100 | – | – | – | – | –
O=c1[nH]c(-c2ccc(F)cc2)nc2sc3c(c12)CCCC3 | – | 9.1 | 8.6 | 16.9 | 14.5 | > 100 | > 100 | – | – | – | – | –
Nc1nc(NNC(=O)c2ccncc2)nc2sc3c(c12)CCCC3 | – | – | – | – | – | – | – | – | – | 7.7 | 18.9 | 13.3
O=c1[nH]c(-c2ccc(Cl)cc2Cl)nc2sc3c(c12)CCCC3 | – | 77.1 | 90.9 | 89.6 | 99.5 | 28.7 | > 100 | – | – | – | – | –
Cc1ccc(-c2nc(O)c3c4c(sc3n2)CCCC4)cc1 | – | > 100 | > 100 | 99.1 | 69.9 | 86.8 | > 100 | – | – | – | – | –
COc1cccc(-c2nc3sc4c(c3c(=O)[nH]2)CCCC4)c1O | – | 34.2 | 32.8 | 49.3 | 59.4 | > 100 | > 100 | – | – | – | – | –
O=[N+]([O-])c1ccc(-c2nc(O)c3c4c(sc3n2)CCCC4)cc1 | – | 71.1 | 65.6 | 44.2 | 51.7 | > 100 | > 100 | – | – | – | – | –
N#Cc1ccc(-c2nc3sc4c(c3c(=O)[nH]2)CCCC4)cc1 | – | > 100 | > 100 | > 100 | > 100 | > 100 | > 100 | – | – | – | – | –
O=c1[nH]c(-c2cccc([N+](=O)[O-])c2)nc2sc3c(c12)CCCC3 | – | 2.8 | 1.9 | 8.3 | 12.6 | 91.8 | > 100 | – | – | – | – | –
Oc1nc(-c2ccc(Cl)cc2)nc2sc3c(c12)CCCC3 | – | 33.8 | 19.2 | 33.8 | 33.2 | > 100 | > 100 | – | – | – | – | –
COc1cccc(-c2nc3sc4c(c3c(=O)[nH]2)CCCC4)c1 | – | > 100 | > 100 | > 100 | > 100 | 9.6 | > 100 | – | – | – | – | –
Oc1nc(-c2ccccc2)nc2sc3c(c12)CCCC3 | – | 8.3 | 4.8 | 18.3 | 12 | > 100 | > 100 | – | – | – | – | –
